Results from US10202361B2, “Pyridazinones as herbicides” (E I DU PONT DE NEMOURS AND COMPANY, priority 2014, dated 2019).
Where two headings read alike, the source gives them in different places.

Experiments:
Format in all cases: in vivo
[1] = tested on: velvetleaf (Abutilon theophrasti); test: Test C pre-/postemergence greenhouse herbicide test; conditions: Abutilon theophrasti, Velvetleaf, read-out: Plant response rating; for pest or weed control at 62 g/ha: 62 g ai/ha; for pest or weed control at 125 g/ha: 125 g ai/ha; for pest or weed control at 250 g/ha: 250 g ai/ha
Source text: (§1) Seeds of plant species selected from blackgrass (Alopecurus myosuroides), bromegrass, downy (downy bromegrass, Bromus tectorum), foxtail, green (green foxtail, Setaria viridis), ryegrass, Italian (Italian ryegrass, Lolium multiflorum), wheat (winter wheat, Triticum aestivum), oat, wild (wild oat, Avena fatua), galium (catchweed bedstraw, Galium aparine), bermudagrass (Cynodon dactylon), surinam grass (Brachiaria decumbens), cocklebur (common cocklebur, Xanthium strumarium), corn (Zea mays), crabgrass, large (large crabgrass, Digitaria sanguinalis), cupgrass, woolly (woolly cupgrass, Eriochloa villosa), foxtail, giant (giant foxtail, Setaria faberii), goosegrass (Eleusine indica), johnsongrass (Sorghum halepense), kochia (Kochia scoparia), lambsquarters (Chenopodium album), morningglory (Ipomoea coccinea), nightshade (eastern black nightshade, Solanum ptycanthum), nutsedge, yellow (yellow nutsedge, Cyperus esculentus), pigweed (Amaranthus retroflexus), ragweed (common ragweed, Ambrosia elatior), soybean (Glycine max), sunflower (common oilseed sunflower, Helianthus annuus), Russian thistle (Salsola kali), barnyardgrass (Echinochloa crus-galli), oilseed rape (Brassica napus), waterhemp (common waterhemp, Amaranthus rudis), and velvetleaf (Abutilon theophrasti) were planted into a blend of loam soil and sand and treated preemergence with test chemicals formulated in a non-phytotoxic solvent mixture which included a surfactant.
(§2) At the same time, plants selected from these crop and weed species and also barley (winter barley, Hordeum vulgare), canarygrass (Phalaris minor), windgrass (Apera spica-venti), deadnettle (henbit deadnettle, Lamium amplexicaule), and chickweed (common chickweed, Stellaria media) were planted in pots containing Redi-Earth® planting medium (Scotts Company, 14111 Scottslawn Road, Marysville, Ohio 43041) comprising spaghnum peat moss, vermiculite, wetting agent and starter nutrients and treated with postemergence applications of test chemicals formulated in the same manner. Plants ranged in height from 2 to 18 cm (1- to 4-leaf stage) for postemergence treatments. Treated plants and controls were maintained in a greenhouse for 13 to 15 d, after which time all species were compared to controls and visually evaluated. Plant response ratings, summarized in Table C, are based on a scale of 0 to 100 where 0 is no effect and 100 is complete control. A dash (-) response means no test result.

[2] = tested on: crabgrass, Large (large crabgrass, Digitaria sanguinalis); test: as above; conditions: Digitaria sanguinalis, Crabgrass, Large, read-out: Plant response rating; for pest or weed control at 31 g/ha: 31 g ai/ha; for pest or weed control at 62 g/ha: 62 g ai/ha; for pest or weed control at 125 g/ha: 125 g ai/ha; for pest or weed control at 250 g/ha: 250 g ai/ha
Source text: as §1, §2

[3] = tested on: ryegrass, Italian (Italian ryegrass, Lolium multiflorum); test: as above; conditions: Lolium multiflorum, Ryegrass, Italian, read-out: Plant response rating; for pest or weed control at 31 g/ha: 31 g ai/ha; for pest or weed control at 62 g/ha: 62 g ai/ha; for pest or weed control at 125 g/ha: 125 g ai/ha; for pest or weed control at 250 g/ha: 250 g ai/ha
Source text: as §1, §2

[4] = tested on: foxtail, giant (giant foxtail, Setaria faberii); test: as above; conditions: Setaria faberi, Foxtail, Giant, read-out: Plant response rating; for pest or weed control at 31 g/ha: 31 g ai/ha; for pest or weed control at 62 g/ha: 62 g ai/ha; for pest or weed control at 125 g/ha: 125 g ai/ha; for pest or weed control at 250 g/ha: 250 g ai/ha
Source text: as §1, §2

[5] = tested on: blackgrass (Alopecurus myosuroides); test: as above; conditions: Alopecurus myosuroides, Blackgrass, read-out: Plant response rating; for pest or weed control at 31 g/ha: 31 g ai/ha; for pest or weed control at 62 g/ha: 62 g ai/ha; for pest or weed control at 125 g/ha: 125 g ai/ha; for pest or weed control at 250 g/ha: 250 g ai/ha
Source text: as §1, §2

[6] = tested on: oilseed rape (Brassica napus); test: as above; conditions: Oilseed Rape
Source text: as §1, §2

[7] = tested on: chickweed (common chickweed, Stellaria media); test: Test C postemergence greenhouse herbicide test
Source text: as §2

rice (Oryza sativa) = test: Test B flooded paddy test; conditions: Oryza sativa, 312 h; Flood, 125 g ai/ha; scale of 0 to 100, 0 is no effect, 100 is complete control; 13 to 15 d; read-out: Plant response rating, Rice
How it was run: (§3)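 Visual ratings, 0 meaning no effect and 100 complete control, were made relative to untreated controls 13–15 d after treatment in a greenhouse. Treatment was by addition to paddy water 3 cm above the soil, maintained for the test, on 2-leaf-stage plants.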

[8] = tested on: sedge, umbrella (small-flower umbrella sedge, Cyperus difformis); test: Test B flooded paddy test; conditions: Cyperus difformis, 312 h; Flood, 125 g ai/ha; scale of 0 to 100, 0 is no effect, 100 is complete control; 13 to 15 d; read-out: Plant response rating, Sedge, Umbrella
How it was run: as §3

[9] = tested on: ducksalad (Heteranthera limosa); test: Test B flooded paddy test; conditions: Heteranthera limosa, 312 h; Flood, 125 g ai/ha; scale of 0 to 100, 0 is no effect, 100 is complete control; 13 to 15 d; read-out: Plant response rating, Ducksalad
How it was run: as §3

[10] = tested on: barnyardgrass (Echinochloa crus-galli); test: Test B flooded paddy test; conditions: Echinochloa crus-galli, 312 h; Flood, 125 g ai/ha; scale of 0 to 100, 0 is no effect, 100 is complete control; 13 to 15 d; read-out: Plant response rating, Barnyardgrass
How it was run: as §3

Question: `Cc1cc(=O)n(-c2ccc(F)cc2)nc1Cc1ccnc(C(F)(F)F)c1` [Compound 1, 2-(4-fluorophenyl)-5-methyl-6-[[2-(trifluoromethyl)-4-pyridinyl]methyl]-3(2H)-pyridazinone] was tested. Which pest or weed control at 31 g/ha ([1]; post-emergence, Postemergence, 31 g ai/ha) did it give?
Answer: Its pest or weed control at 31 g/ha is 10%.

Question: And the pest or weed control at 62 g/ha ([1]; post-emergence, Postemergence)?
Answer: Its pest or weed control at 62 g/ha is 20%.

Question: What about the pest or weed control at 125 g/ha ([1]; post-emergence, Postemergence) of the same compound?
Answer: Its pest or weed control at 125 g/ha is 20%.

Question: And the pest or weed control at 250 g/ha ([1]; post-emergence, Postemergence)?
Answer: Its pest or weed control at 250 g/ha is 30%.

Question: And the pest or weed control at 62 g/ha ([1]; pre-emergence, Preemergence)?
Answer: Its pest or weed control at 62 g/ha is 35%.

Question: What about the pest or weed control at 125 g/ha ([1]; pre-emergence, Preemergence) of the same compound?
Answer: The pest or weed control at 125 g/ha was 40%.

Question: And the pest or weed control at 250 g/ha ([1]; pre-emergence, Preemergence)?
Answer: The pest or weed control at 250 g/ha was 100%.

Question: What about the pest or weed control at 31 g/ha ([2]; post-emergence, Postemergence) of the same compound?
Answer: The pest or weed control at 31 g/ha was 5%.

Question: And the pest or weed control at 62 g/ha ([2]; post-emergence, Postemergence)?
Answer: Its pest or weed control at 62 g/ha is 5%.

Question: What about the pest or weed control at 125 g/ha ([2]; post-emergence, Postemergence) of the same compound?
Answer: The pest or weed control at 125 g/ha was 10%.

Question: And the pest or weed control at 250 g/ha ([2]; post-emergence, Postemergence)?
Answer: Its pest or weed control at 250 g/ha is 20%.

Question: What about the pest or weed control at 31 g/ha ([2]; pre-emergence, Preemergence) of the same compound?
Answer: Its pest or weed control at 31 g/ha is 100%.

Question: And the pest or weed control at 62 g/ha ([2]; pre-emergence, Preemergence)?
Answer: Its pest or weed control at 62 g/ha is 100%.

Question: And the pest or weed control at 125 g/ha ([2]; pre-emergence, Preemergence)?
Answer: The pest or weed control at 125 g/ha was 100%.

Question: And the pest or weed control at 250 g/ha ([2]; pre-emergence, Preemergence)?
Answer: The pest or weed control at 250 g/ha was 100%.

Question: What about the pest or weed control at 31 g/ha ([3]; post-emergence, Postemergence) of the same compound?
Answer: Its pest or weed control at 31 g/ha is 5%.

Question: What about the pest or weed control at 62 g/ha ([3]; post-emergence, Postemergence) of the same compound?
Answer: The pest or weed control at 62 g/ha was 5%.

Question: And the pest or weed control at 125 g/ha ([3]; post-emergence, Postemergence)?
Answer: Its pest or weed control at 125 g/ha is 5%.

Question: And the pest or weed control at 250 g/ha ([3]; post-emergence, Postemergence)?
Answer: The pest or weed control at 250 g/ha was 5%.

Question: What about the pest or weed control at 31 g/ha ([3]; pre-emergence, Preemergence) of the same compound?
Answer: Its pest or weed control at 31 g/ha is 5%.

Question: And the pest or weed control at 62 g/ha ([3]; pre-emergence, Preemergence)?
Answer: The pest or weed control at 62 g/ha was 10%.

Question: What about the pest or weed control at 125 g/ha ([3]; pre-emergence, Preemergence) of the same compound?
Answer: Its pest or weed control at 125 g/ha is 85%.

Question: What about the pest or weed control at 250 g/ha ([3]; pre-emergence, Preemergence) of the same compound?
Answer: Its pest or weed control at 250 g/ha is 98%.

Question: What about the pest or weed control at 31 g/ha ([4]; post-emergence, Postemergence) of the same compound?
Answer: The pest or weed control at 31 g/ha was 10%.

Question: What about the pest or weed control at 62 g/ha ([4]; post-emergence, Postemergence) of the same compound?
Answer: The pest or weed control at 62 g/ha was 10%.

Question: What about the pest or weed control at 125 g/ha ([4]; post-emergence, Postemergence) of the same compound?
Answer: The pest or weed control at 125 g/ha was 15%.

Question: And the pest or weed control at 250 g/ha ([4]; post-emergence, Postemergence)?
Answer: The pest or weed control at 250 g/ha was 20%.

Question: What about the pest or weed control at 31 g/ha ([4]; pre-emergence, Preemergence) of the same compound?
Answer: Its pest or weed control at 31 g/ha is 100%.

Question: What about the pest or weed control at 62 g/ha ([4]; pre-emergence, Preemergence) of the same compound?
Answer: The pest or weed control at 62 g/ha was 100%.

Question: What about the pest or weed control at 125 g/ha ([4]; pre-emergence, Preemergence) of the same compound?
Answer: Its pest or weed control at 125 g/ha is 100%.

Question: And the pest or weed control at 250 g/ha ([4]; pre-emergence, Preemergence)?
Answer: Its pest or weed control at 250 g/ha is 100%.

Question: And the pest or weed control at 31 g/ha ([5]; post-emergence, Postemergence)?
Answer: Its pest or weed control at 31 g/ha is 5%.

Question: And the pest or weed control at 62 g/ha ([5]; post-emergence, Postemergence)?
Answer: The pest or weed control at 62 g/ha was 5%.

Question: And the pest or weed control at 125 g/ha ([5]; post-emergence, Postemergence)?
Answer: Its pest or weed control at 125 g/ha is 5%.

Question: And the pest or weed control at 250 g/ha ([5]; post-emergence, Postemergence)?
Answer: The pest or weed control at 250 g/ha was 5%.

Question: And the pest or weed control at 31 g/ha ([5]; pre-emergence, Preemergence)?
Answer: Its pest or weed control at 31 g/ha is 30%.

Question: What about the pest or weed control at 62 g/ha ([5]; pre-emergence, Preemergence) of the same compound?
Answer: Its pest or weed control at 62 g/ha is 30%.

Question: And the pest or weed control at 125 g/ha ([5]; pre-emergence, Preemergence)?
Answer: Its pest or weed control at 125 g/ha is 90%.

Question: And the pest or weed control at 250 g/ha ([5]; pre-emergence, Preemergence)?
Answer: Its pest or weed control at 250 g/ha is 90%.

Question: What about the Plant response rating ([6]; Postemergence, 31 g ai/ha) of the same compound?
Answer: Its Plant response rating is 5.

Question: What about the Plant response rating ([6]; Postemergence, 62 g ai/ha) of the same compound?
Answer: Its Plant response rating is 5.

Question: What about the Plant response rating ([6]; Postemergence, 125 g ai/ha) of the same compound?
Answer: Its Plant response rating is 10.

Question: And the Plant response rating ([6]; Postemergence, 250 g ai/ha)?
Answer: The Plant response rating was 30.

Question: What about the Plant response rating ([6]; Preemergence, 31 g ai/ha) of the same compound?
Answer: Its Plant response rating is 30.

Question: What about the Plant response rating ([6]; Preemergence, 62 g ai/ha) of the same compound?
Answer: Its Plant response rating is 80.

Question: What about the Plant response rating ([6]; Preemergence, 125 g ai/ha) of the same compound?
Answer: The Plant response rating was 100.

Question: And the Plant response rating ([6]; Preemergence, 250 g ai/ha)?
Answer: Its Plant response rating is 100.

Question: What about the Plant response rating ([7]; 31 g ai/ha) of the same compound?
Answer: Its Plant response rating is 40.

Question: What about the Plant response rating ([7]; 62 g ai/ha) of the same compound?
Answer: Its Plant response rating is 45.

Question: What about the Plant response rating ([7]; 125 g ai/ha) of the same compound?
Answer: Its Plant response rating is 60.

Question: What about the Plant response rating ([7]; 250 g ai/ha) of the same compound?
Answer: The Plant response rating was 90.

Question: What about the plant injury at 125 g/ha (rice (Oryza sativa)) of the same compound?
Answer: The plant injury at 125 g/ha was 20%.

Question: And the pest or weed control at 125 g/ha [8]?
Answer: Its pest or weed control at 125 g/ha is 80%.

Question: And the pest or weed control at 125 g/ha [9]?
Answer: Its pest or weed control at 125 g/ha is 60%.

Question: And the pest or weed control at 125 g/ha [10]?
Answer: The pest or weed control at 125 g/ha was 10%.
